Results: US6362369B1, “Phthalic acid diamide derivatives fluorine-containing aniline compounds as starting material, agricultural and horticultural insecticides, and a method for application of the insecticides” (Nihon Nohyaku Co., Ltd., priority 1997, dated 2002)

Columns and labels:
[1] = tested on: common cutworm (Spodoptera Litura); assay: Insecticidal effect on common cutworm (Test Example 2); type: in vivo; conditions: 500 ppm, 25° C.; for Insecticidal effect on common cutworm (Test Example 2), judged grade / Insecticidal effect (Test Example 2), judged from mortality: cabbage leaf dip; for Insecticidal effect on common cutworm (Test Example 2), judged grade: second-instar larvae; for Insecticidal effect on common cutworm (Test Example 2), judged grade / Insecticidal effect, Test Example 2: eight days after inoculation; for Insecticidal effect, Test Example 2: cabbage leaf immersed; for Insecticidal effect (Test Example 2), judged from mortality: 8 days after inoculation
Description: Insecticidal effect on common cutworm (Spodoptera Litura)
After air-drying, it was placed in a plastic Petri dish with a diameter of 9 cm and inoculated with second-instar larvae of common cutworm, after which the dish was closed and then allowed to stand in a room thermostated at 25° C. Eight days after the inoculation, the dead and alive were counted. The mortality was calculated according to the following equation and the insecticidal effect was judged according to the criterion shown in Test Example 1. The test was carried out with triplicate groups of 10 insects. [formula]

[2] = tested on: diamondback moth (Plutella xylostella); assay: Insecticidal effect on diamondback moth (Test Example 1); type: in vivo; conditions: for Insecticidal effect on diamondback moth (Test Example 1), judged grade: mortality judged according to the criterion shown in Test Example 1; for Insecticidal effect, Test Example 1 / Insecticidal effect (Test Example 1), judged from mortality: diamondback moth; for Insecticidal effect (Test Example 1), judged from mortality: judged by the criterion of Test Example 1
Procedure, shortened: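 Oviposition by adults on Chinese cabbage seedling; immersion; air-dry; 25° C room. Count of hatched larvae at day 6 post-immersion → mortality → effect graded by criterion. Triplicate, 10 insects/group.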

[3] = common cutworm second-instar larvae
[4] = mortality judged by criterion of Test Example 1
[5] = second-instar larvae of common cutworm
[6] = judged by the mortality criterion of Test Example 1

Which results are given for `O=C(Nc1ccc(C(F)(F)F)cc1)c1ccccc1C(=O)N1CCCC1` [compound 881]?
Insecticidal effect on common cutworm (Test Example 2), judged grade [1]: D (79-50); Insecticidal effect on diamondback moth (Test Example 1), judged grade [2]: A (100)

What does the source list for `Cc1cc(OC(F)(F)F)ccc1NC(=O)c1cccc(OC(F)(F)F)c1C(=O)NC(C)C` [compound 1233]?
Insecticidal effect, Test Example 2 [1, 3]: A (100); Insecticidal effect, Test Example 1 [2, 4]: A (100)

Which results are given for `COc1ccc(NC(=O)c2c(Br)cccc2C(=O)NC(C)C)c(C)c1C` [compound 321]?
Insecticidal effect, Test Example 2 [1, 5]: A (100); Insecticidal effect, Test Example 1 [2, 6]: A (100)

Which results are given for `Cc1cc(Oc2c(F)c(F)c(F)c(F)c2F)ccc1NC(=O)c1c(Cl)cccc1C(=O)NC(C)C` [compound 248]?
Insecticidal effect, Test Example 2 [1, 5]: C (89-80); Insecticidal effect, Test Example 1 [2, 6]: A (100)

How did the “Insecticidal effect (Test Example 2), judged from mortality” value [1, 5] turn out when `Cc1cc(C(F)(C(F)(F)F)C(F)(F)F)c(Cl)cc1NC(=O)c1cccc(I)c1C(=O)NC(C)C` [compound 1665] was run?
The value was “A (100)”.

What about the “Insecticidal effect (Test Example 1), judged from mortality” value [2] of the same molecule?
The value was “A (100)”.

How did the “Insecticidal effect (Test Example 2), judged from mortality” value [1, 5] turn out when `Cc1c(NC(=O)c2cccc(I)c2C(=O)NC(C)C)ccc(C(F)(C(F)(F)F)C(F)(F)F)c1C` [compound 1689] was run?
The value was “A (100)”.

And the “Insecticidal effect (Test Example 1), judged from mortality” value [2]?
The value was “A (100)”.

For `CC(C)NC(=O)c1c(I)cccc1C(=O)Nc1ccc(OC(F)(F)F)cc1F` [compound 1188], which “Insecticidal effect, Test Example 2” value [1, 3] is on record?
Its value is “A (100)”.

What about the “Insecticidal effect, Test Example 1” value [2, 4] of the same molecule?
Its value is “A (100)”.

With `CC(C)NC(=O)c1c(C(=O)Nc2cccc(Cl)c2Cl)cccc1[N+](=O)[O-]` [compound 584] as the molecule, how does the “Insecticidal effect on common cutworm (Test Example 2), judged grade” value (“Insecticidal effect on common cutworm” for short) [1] read?
The value was “D (79-50)”.

And the “Insecticidal effect on diamondback moth (Test Example 1), judged grade” value (“Insecticidal effect on diamondback moth” below) [2]?
The value was “A (100)”.

Which “Insecticidal effect (Test Example 2), judged from mortality” value [1, 5] does the source give for `Cc1c(NC(=O)c2cccc(I)c2C(=O)NC(C)(C)C)ccc(C(F)(C(F)(F)F)C(F)(F)F)c1C` [compound 1690] here?
The value was “A (100)”.

What about the “Insecticidal effect (Test Example 1), judged from mortality” value [2] of the same molecule?
Its value is “A (100)”.

For `CC(C)NC(=O)c1c(Cl)cccc1C(=O)Nc1ccc(OC(F)F)c(C(F)(F)F)c1` [compound 164], which “Insecticidal effect, Test Example 2” value [1, 5] is on record?
Its value is “A (100)”.

What about the “Insecticidal effect, Test Example 1” value [2, 6] of the same molecule?
Its value is “A (100)”.

How did the “Insecticidal effect, Test Example 2” value [1, 5] turn out when `CC(C)NC(=O)c1ccccc1C(=O)Nc1ccc([N+](=O)[O-])cc1` [compound 22] was run?
The value was “D (79-50)”.

What about the “Insecticidal effect, Test Example 1” value [2, 6] of the same molecule?
The value was “A (100)”.

For `CSc1cc(C(F)(C(F)(F)F)C(F)(F)F)ccc1NC(=O)c1cccc(I)c1C(=O)NC(C)(C)C` [compound 1672], which “Insecticidal effect (Test Example 2), judged from mortality” value [1, 5] is on record?
Its value is “A (100)”.

And the “Insecticidal effect (Test Example 1), judged from mortality” value [2]?
The value was “A (100)”.

Which “Insecticidal effect (Test Example 2), judged from mortality” value [1, 5] does the source give for `Cc1cc(C(F)(F)C(F)(F)F)ccc1NC(=O)c1cccc(I)c1C(=O)N[C@H](C)CBr` [compound 1607] here?
Its value is “A (100)”.

And the “Insecticidal effect (Test Example 1), judged from mortality” value [2]?
Its value is “A (100)”.

Which “Insecticidal effect, Test Example 2” value [1, 3] does the source give for `CCN(CC)C(=O)c1c(C(=O)Nc2ccc(OC(F)(F)F)cc2C)ccc(F)c1Cl` [compound 1261] here?
Its value is “A (100)”.

What about the “Insecticidal effect, Test Example 1” value [2, 4] of the same molecule?
Its value is “A (100)”.

For `COc1cc(C(F)(F)C(F)(F)F)ccc1NC(=O)c1cccc(I)c1C(=O)NC(C)(C)C` [compound 1662], which “Insecticidal effect (Test Example 2), judged from mortality” value [1, 5] is on record?
Its value is “A (100)”.

And the “Insecticidal effect (Test Example 1), judged from mortality” value [2]?
Its value is “A (100)”.

With `Cc1cc(Cl)ccc1NC(=O)c1cccc([N+](=O)[O-])c1C(=O)NC(C)C` [compound 664, 3-nitro-N^1-(4-chloro-2-methylphenyl)-N^2-isopropyl-phthalic acid diamide] as the molecule, how does the “Insecticidal effect on common cutworm” value [1] read?
The value was “A (100)”.

And the “Insecticidal effect on diamondback moth” value [2]?
Its value is “A (100)”.

`Cc1cc([N+](=O)[O-])ccc1NC(=O)c1cccc([N+](=O)[O-])c1C(=O)NC(C)C` [compound 706] was tested. Which “Insecticidal effect on common cutworm” value [1] did it give?
The value was “A (100)”.

And the “Insecticidal effect on diamondback moth” value [2]?
The value was “A (100)”.

What does the source list for `CCN(CC)C(=O)c1c(C(=O)Nc2ccc(C(F)(F)C(F)(F)F)cc2C)cccc1C(F)(F)F` [compound 1186]?
Insecticidal effect, Test Example 2 [1, 3]: A (100); Insecticidal effect, Test Example 1 [2, 4]: A (100)

Which “Insecticidal effect (Test Example 2), judged from mortality” value [1, 5] does the source give for `Cc1cc2c(cc1NC(=O)c1cccc(Cl)c1C(=O)NC(C)C)OC(F)(F)C(F)O2` (racemic) [compound 1597] here?
Its value is “A (100)”.

And the “Insecticidal effect (Test Example 1), judged from mortality” value [2]?
The value was “A (100)”.
